The results in this text go back to ChEMBL document CHEMBL1201862, “PubChem BioAssay data set” (2004).

Activity calls are given as the source filed them.

Assay [1] addresses T1, Mannose-6-phosphate isomerase (Homo sapiens, UniProt P34949).
T1 sequence (P34949 whole entry): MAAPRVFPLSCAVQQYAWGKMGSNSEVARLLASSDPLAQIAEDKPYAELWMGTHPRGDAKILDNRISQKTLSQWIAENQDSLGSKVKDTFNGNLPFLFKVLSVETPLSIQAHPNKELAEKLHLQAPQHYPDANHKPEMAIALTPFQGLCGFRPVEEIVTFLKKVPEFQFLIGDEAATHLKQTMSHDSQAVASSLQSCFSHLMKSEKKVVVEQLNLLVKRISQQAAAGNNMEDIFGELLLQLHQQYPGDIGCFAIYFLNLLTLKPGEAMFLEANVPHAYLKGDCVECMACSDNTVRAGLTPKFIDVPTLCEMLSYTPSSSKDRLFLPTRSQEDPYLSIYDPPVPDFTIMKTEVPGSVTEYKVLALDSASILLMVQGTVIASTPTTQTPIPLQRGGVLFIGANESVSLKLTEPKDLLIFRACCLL
As to the kind of experiment: human PMI inhibitors, high substrate, primary screen, biochemical, fluorescence intensity, high mannose 6-phosphate (AID 1220).

Assay [2] in a line: cytotoxicity toward NIH3T3 fibroblasts, dose response, counter-screen, cell-based, ATP luminescence, mouse fibroblasts (AID 2010).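 Further: cells exposed to compound for about 90 hours before reading.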 The format is functional.
A short description of assay [3]: inhibitors of intracellular T. cruzi replication, confirmation, NIH3T3 host cells, beta-gal luminescence (AID 2044).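 Further: intracellular parasites grown in NIH/3T3 mouse fibroblasts as host cells; luminescent beta-galactosidase reporter signal from transgenic T. cruzi replicating inside host cells; inhibitors lower the luminescence signal.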 The format is functional, cell-based.
A short description of assay [4]: cells. The assay is classed as functional, cell-based.
The nature of assay [5]: inhibitors of SNCA 5'UTR-driven translation, confirmation, luminescence, H4 neuroglioblastoma cells, dose confirmation (AID 2454).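 Further: H4 neuroglioblastoma cells carrying an alpha-synuclein 5'UTR luciferase reporter; potency for inhibition of the luciferase signal.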 The assay is classed as functional, cell-based.
Assay [6] in a line: inhibitors of firefly luciferase expression or activity, dose response, H4 neuroglioma cells, luminescence (AID 1990). The assay is classed as functional, cell-based.
A short description of assay [7]: Luminescence Cell-Based Dose Response HTS to Identify Inhibitors of 5'UTR Stem-Loop Driven Prion Protein mRNA Translation in H4 Neuroglioblastoma Cells. [Related pubchem assays: 1827 (Project Summary), 1813 (Primary HTS)]. The assay is classed as functional.
The nature of assay [8]: luciferase reporter signal reduction – luminescence, H4-C neuroglioblastoma cells, dose response (AID 2458).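 Further: H4 neuroglioblastoma cells stably carrying a luciferase reporter gene fusion.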 The format is functional, cell-based. (In a reporter assay the amount or activity of a reporter protein is the signal.)
A further assay deals with Protein Tat (Human immunodeficiency virus type 1 group M subtype B (isolate HXB2)(HIV-1), UniProt P04608). The format is functional.
Protein Tat, sequence (P04608 whole entry): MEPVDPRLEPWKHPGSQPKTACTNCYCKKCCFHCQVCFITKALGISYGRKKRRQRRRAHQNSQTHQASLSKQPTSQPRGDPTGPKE
A short description of assay [9]: inhibitors of SNCA 5'UTR-driven reporter translation, confirmation, H4 neuroglioma cells, luminescence (AID 1988). The format is functional, cell-based.
Assay [10] has as its target Induced myeloid leukemia cell differentiation protein Mcl-1 (Homo sapiens, UniProt Q07820). The format is functional.
The next assay concerns the target Large T antigen (Simian virus 40, UniProt P03070). The assay is classed as functional, Betapolyomavirus macacae.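 Further: Confirmatory-stage PubChem screen for compounds that inhibit SV40 T antigen.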
Assay [11] is described as follows: THP-1 cell cytotoxicity, dose response, cytotoxicity control for Vif-APOBEC3G degradation inhibitor project, THP-1 cells (AID 1117359). Conditions: Human immunodeficiency virus 1, THP-1. The assay is classed as functional.
Assay [12] in a line: THP-1 cell cytotoxicity, dose response, cytotoxicity control for non-replicating M. tuberculosis project (AID 489025). The assay is classed as functional.
Assay [13] addresses Bifunctional protein GlmU (Mycobacterium tuberculosis, UniProt P9WMN3). As to the kind of experiment: Inhibitors of Mycobacterial Glucosamine-1-phosphate acetyl transferase (GlmU). Secondary screen. On the set-up: species or system Mycobacterium tuberculosis H37Rv.
A short description of assay [14]: cells.
A short description of assay [15]: cells. The assay is classed as functional.
In assay [16] the target is T2, Replicative DNA helicase DnaB (Mycobacterium tuberculosis, UniProt P9WMR3).
T2 sequence (P9WMR3 whole entry): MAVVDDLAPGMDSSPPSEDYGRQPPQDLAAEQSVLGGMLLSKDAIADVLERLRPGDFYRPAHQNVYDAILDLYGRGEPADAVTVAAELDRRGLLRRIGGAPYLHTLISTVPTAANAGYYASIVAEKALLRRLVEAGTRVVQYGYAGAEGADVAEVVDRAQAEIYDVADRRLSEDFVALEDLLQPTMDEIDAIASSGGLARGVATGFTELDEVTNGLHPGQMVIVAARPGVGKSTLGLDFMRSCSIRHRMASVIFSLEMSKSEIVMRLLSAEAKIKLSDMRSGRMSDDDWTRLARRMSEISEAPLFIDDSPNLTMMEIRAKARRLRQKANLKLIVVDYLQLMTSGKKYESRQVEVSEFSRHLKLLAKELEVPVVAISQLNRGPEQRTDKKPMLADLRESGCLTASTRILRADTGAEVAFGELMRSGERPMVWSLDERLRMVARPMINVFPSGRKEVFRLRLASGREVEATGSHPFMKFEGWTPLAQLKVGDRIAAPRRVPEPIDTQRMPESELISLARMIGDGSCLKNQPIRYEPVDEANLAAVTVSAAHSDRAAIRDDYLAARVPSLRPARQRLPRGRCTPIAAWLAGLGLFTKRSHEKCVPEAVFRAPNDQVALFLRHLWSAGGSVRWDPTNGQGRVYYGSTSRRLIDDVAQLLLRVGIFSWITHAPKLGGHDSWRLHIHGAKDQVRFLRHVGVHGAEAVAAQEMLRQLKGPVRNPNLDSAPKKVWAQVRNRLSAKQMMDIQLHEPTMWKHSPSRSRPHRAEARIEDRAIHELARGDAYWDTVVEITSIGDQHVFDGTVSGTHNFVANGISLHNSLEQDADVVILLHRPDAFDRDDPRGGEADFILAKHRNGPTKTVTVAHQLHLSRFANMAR
The assay can be described thus: DnaB intein splicing inhibitors, dose response, biochemical, cell-free fluorescence (AID 449749). The assay is classed as functional.

For a further assay, the target named is T3, Protein RecA (Mycobacterium tuberculosis, UniProt P9WHJ3).
T3 sequence (P9WHJ3 whole entry): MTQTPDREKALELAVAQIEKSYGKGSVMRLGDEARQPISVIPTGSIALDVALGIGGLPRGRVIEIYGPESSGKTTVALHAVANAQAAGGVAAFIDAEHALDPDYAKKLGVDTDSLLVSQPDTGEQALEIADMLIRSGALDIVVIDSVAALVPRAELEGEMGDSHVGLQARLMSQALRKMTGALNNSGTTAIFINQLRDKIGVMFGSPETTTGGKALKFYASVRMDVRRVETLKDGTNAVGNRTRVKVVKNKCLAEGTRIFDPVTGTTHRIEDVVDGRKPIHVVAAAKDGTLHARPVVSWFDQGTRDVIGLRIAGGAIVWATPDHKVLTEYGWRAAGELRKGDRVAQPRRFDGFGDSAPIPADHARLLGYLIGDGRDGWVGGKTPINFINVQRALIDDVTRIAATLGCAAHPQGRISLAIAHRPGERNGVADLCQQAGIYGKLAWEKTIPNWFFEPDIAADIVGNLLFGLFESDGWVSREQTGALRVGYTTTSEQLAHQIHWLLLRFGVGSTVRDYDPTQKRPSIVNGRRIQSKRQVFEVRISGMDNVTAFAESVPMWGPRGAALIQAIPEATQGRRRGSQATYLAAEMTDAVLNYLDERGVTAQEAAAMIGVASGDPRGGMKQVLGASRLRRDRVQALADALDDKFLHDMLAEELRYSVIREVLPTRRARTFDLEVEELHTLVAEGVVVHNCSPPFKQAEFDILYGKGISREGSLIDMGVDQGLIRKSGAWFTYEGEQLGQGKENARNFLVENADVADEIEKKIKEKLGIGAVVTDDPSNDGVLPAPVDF
The assay can be described thus: Fluorescence Cell-Free Homogeneous Dose Retest to Identify Inhibitors of RecA-Intein Splicing Activity. [Related pubchem assays (depositor defined):AID2097, AID2223, AID489010, AID492950]. The format is functional.

A further assay has as its target Genome polyprotein (dengue virus type 2, UniProt P29990). As to the kind of experiment: Dengue-2 NS5 methyltransferase inhibitors, primary screen, biochemical, confirmation dose response (AID 588689). The format is functional.
A short description of assay [17]: inhibitors of Vif binding to APOBEC3G peptide, primary screen, biochemical, TR-FRET, GST-Vif 1-94, biotin-A3G peptide, dose response retest (AID 1117319).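 Further: TR-FRET signal of purified GST-Vif binding a biotinylated A3G peptide; inhibitors lower the FRET signal by blocking Vif and A3G binding.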 The assay is classed as functional.
Assay [18] is described as follows: RKO cell viability reduction, dose response, CellTiter-Glo luminescence (AID 1117322). The assay is classed as functional.
Assay [19] can be described thus: SNU-C1 cell viability reduction, dose response, CellTiter-Glo luminescence (AID 1117323). The format is functional, cell-based. (In general: ATP-based viability assays read luminescence as a measure of living cells.)
Assay [20] can be described thus: cytotoxicity toward HT-29 cells – cell-based, CellTiter-Glo luminescence, IC50, dose response (AID 1117330). The assay is classed as functional.
A short description of assay [21]: CellTiter-Glo luminescent dose response of DLD-1 viability loss (AID 1117352). The format is functional.
The nature of assay [22]: HCT116 cell viability decrease, GSK3B pretreatment – CellTiter-Glo, IC50, dose response (AID 1117339). The format is functional. Conditions: HCT-116.
Assay [23] is described as follows: cytotoxicity toward HCT116 cells – cell-based, CellTiter-Glo luminescence, IC50, dose response (AID 1117332). The assay is classed as functional. Conditions: HCT-116.
Assay [24] in a line: HeLa 4N DNA content increase, dose response, cell-based, IC50 (AID 1117351). The assay is classed as functional.
The nature of assay [25]: Concentration-dependent survival of SW480 colon cancer line, luminescence detection with CellTiter-Glo, half-maximal inhibitory concentration (AID 1117338). The format is functional.
The nature of assay [26]: cytotoxicity toward Colo320 cells – cell-based, CellTiter-Glo luminescence, IC50, dose response (AID 1117334). The assay is classed as functional. The note with it: COLO 320.
Assay [27] in a line: HeLa 2N DNA content increase, dose response, cell-based, IC50 (AID 1117349). The format is functional.
A short description of assay [28]: HepG2 cell cytotoxicity, dose response, cytotoxicity control, cherry-picked samples (AID 1159577). The format is functional, cell-based.
Assay [29] in a line: P. falciparum Dd2 growth inhibitors, dose response, SYBR Green, cherry-picked samples (AID 1159567). The format is functional, cell-based.

One may read the IC50 as the concentration needed to halve the response being measured. A word on the EC50: it is the midpoint of the concentration-response curve. For orientation: CC50 means the concentration giving 50% cytotoxicity. A word on the AC50: it is the midpoint of the concentration-response curve, whichever way the signal moves.

Bifunctional protein GlmU, sequence (P9WMN3 whole entry): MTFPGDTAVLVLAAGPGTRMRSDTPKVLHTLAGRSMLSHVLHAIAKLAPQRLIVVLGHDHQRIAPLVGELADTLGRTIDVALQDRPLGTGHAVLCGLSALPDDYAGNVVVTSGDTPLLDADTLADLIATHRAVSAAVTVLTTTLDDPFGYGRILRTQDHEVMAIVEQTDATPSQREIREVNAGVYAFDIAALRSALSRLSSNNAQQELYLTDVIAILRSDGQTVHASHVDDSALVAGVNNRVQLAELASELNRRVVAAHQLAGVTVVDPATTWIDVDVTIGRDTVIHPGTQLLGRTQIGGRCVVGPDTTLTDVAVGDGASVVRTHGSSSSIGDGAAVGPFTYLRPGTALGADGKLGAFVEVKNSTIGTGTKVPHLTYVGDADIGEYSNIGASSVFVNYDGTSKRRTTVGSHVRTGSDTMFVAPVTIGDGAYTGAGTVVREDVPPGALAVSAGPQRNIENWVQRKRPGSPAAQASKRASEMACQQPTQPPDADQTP
Induced myeloid leukemia cell differentiation protein Mcl-1, sequence (Q07820 whole entry): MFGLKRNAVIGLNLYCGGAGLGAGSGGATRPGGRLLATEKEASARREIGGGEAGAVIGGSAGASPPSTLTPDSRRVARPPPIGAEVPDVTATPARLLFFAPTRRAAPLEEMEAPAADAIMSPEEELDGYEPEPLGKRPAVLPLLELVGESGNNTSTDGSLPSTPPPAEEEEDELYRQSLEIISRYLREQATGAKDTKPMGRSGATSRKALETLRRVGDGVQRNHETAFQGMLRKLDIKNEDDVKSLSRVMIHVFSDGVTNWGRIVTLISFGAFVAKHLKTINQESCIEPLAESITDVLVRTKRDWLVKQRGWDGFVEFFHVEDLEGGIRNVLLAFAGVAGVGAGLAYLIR
Large T antigen, sequence (P03070 whole entry): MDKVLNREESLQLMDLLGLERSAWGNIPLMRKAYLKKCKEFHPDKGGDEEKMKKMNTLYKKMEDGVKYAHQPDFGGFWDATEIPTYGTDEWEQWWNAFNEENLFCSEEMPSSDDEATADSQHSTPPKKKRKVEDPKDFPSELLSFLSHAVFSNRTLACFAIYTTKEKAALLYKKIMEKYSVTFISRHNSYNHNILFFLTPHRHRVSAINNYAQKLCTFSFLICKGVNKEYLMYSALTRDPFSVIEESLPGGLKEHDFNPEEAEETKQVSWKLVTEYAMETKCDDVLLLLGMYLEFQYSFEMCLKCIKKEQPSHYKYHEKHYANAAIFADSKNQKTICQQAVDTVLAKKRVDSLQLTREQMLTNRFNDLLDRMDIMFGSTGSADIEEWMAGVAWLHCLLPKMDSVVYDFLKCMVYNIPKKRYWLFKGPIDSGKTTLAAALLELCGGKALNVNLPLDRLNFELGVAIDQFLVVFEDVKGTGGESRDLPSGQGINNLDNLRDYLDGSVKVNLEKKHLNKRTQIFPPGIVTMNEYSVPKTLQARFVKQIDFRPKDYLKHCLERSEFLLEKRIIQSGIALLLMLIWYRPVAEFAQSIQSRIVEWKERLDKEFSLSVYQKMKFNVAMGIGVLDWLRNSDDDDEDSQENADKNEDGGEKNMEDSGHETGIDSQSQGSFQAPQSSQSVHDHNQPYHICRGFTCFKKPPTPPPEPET
Genome polyprotein, sequence (P29990 2492-3391 limits assumed): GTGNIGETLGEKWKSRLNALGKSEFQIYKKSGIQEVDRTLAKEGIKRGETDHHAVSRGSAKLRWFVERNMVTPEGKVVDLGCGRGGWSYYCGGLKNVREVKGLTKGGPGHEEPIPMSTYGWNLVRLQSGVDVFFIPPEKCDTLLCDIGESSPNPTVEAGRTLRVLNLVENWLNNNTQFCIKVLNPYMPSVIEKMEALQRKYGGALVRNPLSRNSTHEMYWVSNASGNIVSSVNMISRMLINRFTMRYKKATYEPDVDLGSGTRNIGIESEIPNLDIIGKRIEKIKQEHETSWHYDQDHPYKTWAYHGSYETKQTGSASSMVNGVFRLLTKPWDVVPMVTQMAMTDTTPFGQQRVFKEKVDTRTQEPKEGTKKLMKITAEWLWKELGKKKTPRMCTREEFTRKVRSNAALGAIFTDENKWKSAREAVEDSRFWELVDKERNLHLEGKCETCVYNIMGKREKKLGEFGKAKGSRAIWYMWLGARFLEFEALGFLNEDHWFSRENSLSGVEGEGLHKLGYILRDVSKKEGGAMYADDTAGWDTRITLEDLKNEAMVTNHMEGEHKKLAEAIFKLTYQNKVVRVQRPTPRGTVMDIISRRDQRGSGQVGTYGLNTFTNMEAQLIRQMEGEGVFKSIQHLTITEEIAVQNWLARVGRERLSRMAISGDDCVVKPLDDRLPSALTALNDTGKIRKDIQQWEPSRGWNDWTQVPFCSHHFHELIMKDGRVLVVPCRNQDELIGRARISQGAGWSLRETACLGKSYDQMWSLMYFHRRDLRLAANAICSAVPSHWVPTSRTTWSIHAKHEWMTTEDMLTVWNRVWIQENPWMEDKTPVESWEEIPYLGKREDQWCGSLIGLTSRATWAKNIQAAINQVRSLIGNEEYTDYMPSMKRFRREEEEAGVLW

Take `COc1ccccc1CNc1ccc(N2CCCCC2)cc1`: the IC50 in [1] is > 50 µM (not active). Besides, the EC50 in assay [2] was > 60 µM (not active); in assay [3], 3.17 µM (active).

With `CCC(C)Cn1c(O)cc2nn(-c3nc4ccccc4s3)c(=O)c-2c1C` (stereo unspecified), the EC50 is 0.114 µM (active) in “cells [4]”; 0.072 µM (active) in assay [5]; < 0.1 µM (active) in assay [6]; 0.165 µM (active) in assay [7]; 0.058 µM (active) in [8]; < 0.1 µM (active) in assay [9]. The IC50 at Protein Tat is > 50 µM (active).

Regarding `O=C1NC(=S)S/C1=C\c1ccc(SCc2ccco2)o1`, the IC50 in assay [10] was 1.53 µM (active); on Large T antigen it was 6.01 µM (active); in assay [13] it was 17.7 µM (active). The CC50 in assay [11] and in [12] was > 40 µM (active) in each case.

Regarding `COc1cccc(OCCNC(=O)c2cc([N+](=O)[O-])cc([N+](=O)[O-])c2)c1`, the EC50 in “cells [14]” was 0.086 µM (active); in [2], > 60 µM (not active); in assay [3], < 0.1 µM (active). For the same compound, in “cells [15]”, the IC50 was 0.36 µM (active).

In the case of `O=C(O)c1cccc(Nc2cc(Cl)c3nonc3c2[N+](=O)[O-])c1`, in assay [16], the AC50 was 2.05 µM (active). Also, the EC50 on Protein RecA was 2.52 µM (active). The results for the IC50 (in assay [13]; on Genome polyprotein) were 131 µM (active) and 10.7 µM (active), respectively.

For the compound `COc1ccccc1C1=Nc2cccc3cccc(c23)N1`, the IC50 in [10] is < 0.4 µM (not active); in assay [17] it was > 63.3 µM (active); on Protein Tat, > 100 µM (inconclusive). Further, the CC50 in assay [11] was > 40 µM (active). Further, the EC50 in assay [2] is > 30 µM (not active); in assay [3], 6.83 µM (active).

Take `O=C(CCl)c1ccc(Cl)cc1Cl`: the IC50 in [18] is 4.3 µM (active); in assay [19] it was 2.98 µM (active); in [20] it was 8.52 µM (inactive); in [21], 2.07 µM (active); in assay [22], 1.1 µM (active); in [23], 6.3 µM (inactive). The IC50 in [24] was > 10 µM (inactive); in assay [25] it was 1.25 µM (active); in assay [26], 0.53 µM (active); in [27], 0.514 µM (active).

Regarding `CCCNC[C@@H]1[C@@H](c2ccc(C3=CCCC3)cc2)[C@@H](CO)N1C(=O)C1CCCC1`, the AC50 in assay [28] was 32.4 µM (active); in assay [29], 4 µM (active).

Turning to `O=[N+]([O-])c1ccc(Oc2ccc(N=C=S)cc2)cc1` [NITROSCANATE], the IC50 is 2.34 µM (active) in assay [18]; 4.33 µM (active) in assay [19]; 1.07 µM (active) in [20]; 2.1 µM (active) in assay [21]; 1.47 µM (active) in assay [22]; 2.77 µM (active) in assay [23]. Also, the IC50 was > 10 µM (inactive) in assay [24], 1.63 µM (active) in [25], 1.46 µM (active) in assay [26] and > 10 µM (inactive) in [27].
